Experimental data taken from patent US20240391930A1, “SPIROCYCLIC BICYCLIC MODULATORS OF CHOLESTEROL BIOSYNTHESIS AND THEIR USE FOR PROMOTING REMYELINATION” (GENENTECH, INC., priority 2021, published 2024).

Tested on: zymostenol accumulation in EpiSC-derived OPCs (EBP)
Test: GC/MS-based sterol profiling (zymostenol accumulation)
Format: cell-based
Details: Mus musculus, 24 hours, 8 doses from 0.15 nM to 333 nM, read-out: Zymostenol GCMS EC50
Description: To assess effects of treatments on OPCs, all treatments were assayed in two or more independent platings of epiblast stem cell-derived OPCs (EpiSC). EpiSC-derived OPCs were obtained using in vitro differentiation protocols and culture conditions described previously (Najm et al, 2011, Nature Methods). OPCs were expanded and frozen down in aliquots. OPCs were thawed into growth conditions for at least one passage before use in further assays.
Sterols were monitored using a modified Folch wash protocol (Hubler et al, 2018, Nature). EpiSC-derived OPCs were plated at 100,000 cells per well in PO- and laminin-coated 96-well plates in N2B27 media without growth factors. After 24 hours, cells were rinsed with saline and plates were frozen. Cholesterol-d7 standard was then added to each well before drying under nitrogen stream and derivatization with 55 μl of bis(trimethylsilyl) trifluoroacetamide. After derivatization, 2 μl were analyzed by gas chromatography/mass spectrometry using an Agilent 5973 Network Mass Selective Detector equipped with a 6890 gas chromatograph system and a HP-5MS capillary column (30 m×0.25 mm×[…]). Samples were analyzed in full scan mode using electron impact ionization; ion fragment peaks were integrated to calculate sterol abundance, and quantitation was relative to cholesterol-d7. The following ion fragments were used to quantitate each metabolite: cholesterol-d7 (465), FF-Mas (482), cholesterol (368), zymostenol (458), zymosterol (456), Desmosterol (456, 343), 7-dehydrocholesterol (456, 325), lanosterol (393), lathosterol (458), 14-dehydrozymostenol (456, 351). […] All standards were obtained from Avanti Polar Lipids unless otherwise indicated. Calibration curves were generated by injecting varying concentrations of sterol standards and maintaining a fixed amount of cholesterol-D7. For normalized zymostenol accumulation results, the total amount of zymostenol measured after drug treatment was divided by the total amount of zymostenol accumulated after 24 hr treatment with 100 nM positive control reference.

SMILES | EC50 [µM]
CC(C)n1nc(-c2cccc(C(F)(F)F)n2)cc1[C@H]1[C@@H]2C[C@H](N3CCC[C@]4(CCS(=O)(=O)C4)C3)C[C@@H]21 (single isomer, unassigned) [Compound 83*] | 0.041
CC(C)n1nc(-c2cccc(C(F)(F)F)n2)cc1[C@H]1[C@@H]2C[C@H](N3CCC[C@@]4(CCS(=O)(=O)C4)C3)C[C@@H]21 (single isomer, unassigned) [Compound 82*] | 0.0036
CC(C)n1nc(-c2cccc(C(F)(F)F)n2)cc1[C@H]1[C@@H]2C[C@@H](N3CCC[C@@]4(CCS(=O)(=O)C4)C3)C[C@@H]21 (single isomer, unassigned) [Compound 80*] | 0.0043
CC(C)n1nc(-c2cccc(C(F)(F)F)c2)nc1[C@H]1[C@@H]2C[C@@H](N3CCC4(CC3)CS(=O)(=O)C4)C[C@@H]21 [Compound 79, 7-((1R,3s,5S,6r)-6-(1-isopropyl-3-(3-(trifluoromethyl)phenyl)-1H-1,2,4-triazol-5-yl)bicyclo[3.1.0]hexan-3-yl)-2-thia-7-azaspiro[3.5]nonane 2,2-dioxide] | 0.003

More lines, now with the values ahead:

EC50 [µM] | SMILES
0.24 | CC(C)n1nc(C(F)(F)F)cc1[C@H]1[C@@H]2C[C@@H](N3CCC[C@]4(CCS(=O)(=O)C4)C3)C[C@@H]21 (single isomer, unassigned) [Compound 93*]
0.027 | CC(C)n1nc(-c2cccc(C(F)(F)F)n2)cc1[C@H]1[C@@H]2C[C@@H](N3CCC[C@]4(CCS(=O)(=O)C4)C3)C[C@@H]21 (single isomer, unassigned) [Compound 81*]
0.00347 | CC(C)n1nc(C(F)(F)F)cc1[C@H]1[C@@H]2C[C@H](N3CCC[C@@]4(CCS(=O)(=O)C4)C3)C[C@@H]21 (single isomer, unassigned) [Compound 94*]
0.0583 | CC(C)n1nc(C(F)(F)F)cc1[C@H]1[C@@H]2C[C@H](N3CCC[C@]4(CCS(=O)(=O)C4)C3)C[C@@H]21 (single isomer, unassigned) [Compound 95*]
